Experimental data: US12594278B2, “Method for treatment of muscular dystrophy” (CHILDREN'S NATIONAL MEDICAL CENTER, priority 2019, dated 2026)

What was measured:
[1] = system: cultured adipogenic precursors and WT mouse FAPs; settings: previously shown; cited from earlier work
[2] = system: B6A/J FAPs; test: Spontaneous adipogenesis of B6A/J FAPs in culture with batimastat (Oil Red O); assay type: cell-based, mouse; settings: 10 μM batimastat from day 3 in culture; 40,000 FAPs from 12Mo B6A/J mice; vs untreated
Protocol: To test this, and to independently confirm the benefit of inhibiting adipogenic differentiation of FAPs for dysferlinopathy, a drug was used to inhibit adipogenic differentiation of FAPs. […] To test the ability of batimastat to prevent the spontaneous adipogenesis of B6A/J FAPs, 40,000 FAPs isolated from 12Mo B6A/J mice were treated with 10 μM batimastat starting from 3 days in culture. Using Oil Red O, the extent of adipogenic differentiation of these FAPs after 14 days in culture was quantified in vitro (FIG. 11A).
Isolation and In Vitro Adipogenesis of FAPs. FAPs were isolated from the hindlimb muscles of 6Mo B6A/J mice in a modified protocol from previously published studies. Mice were euthanized and the tibialis anterior, extensor digitorum longus, gastrocnemius, soleus, quadriceps and psoas were immediately dissected. Non-muscle tissue including tendon, nerve and overlying fascia were carefully removed, and muscles were minced finely in a sterile dish and incubated in Collagenase II (2.5 U/ml, ThermoFisher, #17101015) in PBS for 30 min at 37° C. The resulting slurry was washed with sterile PBS before further digest in Collagenase D (1.5 U/ml, Sigma Aldridge, #COLLD-RO) and Dispase II (2.4 U/ml, Sigma Aldridge, #D4693) in PBS for 60 min at 37° C. […]

For `CNC(=O)[C@H](Cc1ccccc1)NC(=O)[C@H](CC(C)C)[C@H](CSc1cccs1)C(=O)NO` [batimastat], the “adipogenesis of cultured adipogenic precursors and WT mouse FAPs” value [1] is given as “restrict adipogenesis” and the “spontaneous adipogenesis of the B6A/J FAPs (Oil Red O)” value [2] is given as “reduced spontaneous adipogenesis”.
